Results from ChEMBL document CHEMBL4316626, “N-Acyl pyrazoles: Effective and tunable inhibitors of serine hydrolases” (Bioorg Med Chem, 2019).

Test: Inhibition of recombinant rat FAAH deltaTM mutant expressed in Escherichia coli using 14C-labeled oleamide as substrate preincubated for 3 hrs followed by substrate addition and measured by TLC based Dixon-plot analysis
Conditions: read-out: Ki(app)

Row | Structure (SMILES) | Ki [µM]
1 | Cc1cnn(C(=O)N2CCN(Cc3cccc(Oc4ccccc4)c3)CC2)c1 | 0.045
2 | Cc1cnn(C(=O)N(C)CCN(C)Cc2ccc(Oc3ccccc3)cc2)c1 | 0.055
3 | CN(CCN(C)C(=O)n1cccn1)Cc1cccc(Oc2ccccc2)c1 | 0.0057
4 | N#Cc1cnn(C(=O)N2CCCN(Cc3cccc(OCc4ccccc4)c3)CC2)c1 | 0.0007
5 | O=C(Cc1ccc(-c2ccccc2)cc1)n1cccn1 | > 5
6 | O=C(NCCCc1ccccc1)n1cccn1 | 0.98
7 | Cc1ccc(COC(=O)n2cccn2)cc1 | > 5
8 | CN(CCN(C)C(=O)n1cc(C#N)cn1)Cc1ccc(Oc2ccccc2)cc1 | 0.002
9 | O=C(NCc1ccc(Oc2ccccc2)cc1)n1cccn1 | 0.18
10 | Cc1cnn(C(=O)N2CCN(Cc3cccc(OCc4ccccc4)c3)CC2)c1 | 0.025
11 | O=C(CCCCc1ccccc1)n1cccn1 | > 5
12 | Cc1cnn(C(=O)N2CCCN(C(=O)OC(C)(C)C)CC2)c1 | 2.9
13 | Cc1cnn(C(=O)N(C)CCN(C)C(=O)OC(C)(C)C)c1 | 0.71
14 | O=C(N1CCN(Cc2ccccc2)CC1)n1cccn1 | 0.18
15 | O=C(N1CCN(Cc2cccc(OCc3ccccc3)c2)CC1)n1cccn1 | 0.0058
16 | O=C(Cc1ccc2ccccc2c1)n1cccn1 | > 5
17 | O=C(NCCCCc1ccccc1)n1cccn1 | 0.29
18 | Cc1cnn(C(=O)CCCCCc2ccccc2)c1 | > 5
19 | N#Cc1cnn(C(=O)N2CCN(Cc3ccccc3)CC2)c1 | 0.075
20 | Cc1cnn(C(=O)NCCCc2ccccc2)c1 | 3
21 | Cc1cnn(C(=O)OCc2ccc(-c3ccccc3)cc2)c1 | > 5
22 | O=C(OCc1ccc(Oc2ccccc2)cc1)n1cccn1 | 0.46

Row | Structure (SMILES) | Ki [µM]
23 | Cc1ccc(CNC(=O)n2cc(C#N)cn2)cc1 | > 5
24 | Cc1cnn(C(=O)NCc2ccc(-c3ccccc3)cc2)c1 | > 5
25 | O=C(CCCCCc1ccccc1)n1cccn1 | > 5
26 | N#Cc1cnn(C(=O)OCc2ccc(Oc3ccccc3)cc2)c1 | 0.06
27 | Cc1cnn(C(=O)OCCCCCc2ccccc2)c1 | > 5
28 | N#Cc1cnn(C(=O)CCCCc2ccccc2)c1 | > 5
29 | N#Cc1cnn(C(=O)NCCCCc2ccccc2)c1 | 0.018
30 | N#Cc1cnn(C(=O)OCc2ccc(-c3ccccc3)cc2)c1 | > 5
31 | O=C(N1CCCN(Cc2ccc(Oc3ccccc3)cc2)CC1)n1cccn1 | 0.0093
32 | N#Cc1cnn(C(=O)OCc2ccc(OCc3ccccc3)cc2)c1 | 0.145
33 | O=C(NCc1ccc(-c2ccccc2)cc1)n1cccn1 | > 5
34 | Cc1cnn(C(=O)OCc2ccc(OCc3ccccc3)cc2)c1 | 1.26
35 | CC(C)(C)OC(=O)N1CCCN(C(=O)n2cccn2)CC1 | 0.62
36 | Cc1cnn(C(=O)NCCCCCc2ccccc2)c1 | 0.56
37 | Cc1cnn(C(=O)NCc2ccc3ccccc3c2)c1 | > 5
38 | CN(CCN(C)C(=O)n1cccn1)C(=O)OC(C)(C)C | 0.08
39 | N#Cc1cnn(C(=O)N2CCN(Cc3ccc(-c4ccccc4)cc3)CC2)c1 | 0.00019
40 | Cc1cnn(C(=O)N2CCCN(Cc3ccc(Oc4ccccc4)cc3)CC2)c1 | 0.11
41 | N#Cc1cnn(C(=O)Cc2ccc3ccccc3c2)c1 | > 5
42 | N#Cc1cnn(C(=O)Nc2ccc3ccccc3c2)c1 | > 5
43 | N#Cc1cnn(C(=O)OCCCc2ccccc2)c1 | 3.5
44 | N#Cc1cnn(C(=O)N2CCCN(Cc3ccc(Oc4ccccc4)cc3)CC2)c1 | 0.001

Row | Structure (SMILES) | Ki [µM]
45 | O=C(N1CCCN(Cc2cccc(Oc3ccccc3)c2)CC1)n1cccn1 | 0.0063
46 | Cc1cnn(C(=O)N2CCN(Cc3ccc(Oc4ccccc4)cc3)CC2)c1 | 0.21
47 | O=C(Oc1ccc2ccccc2c1)n1cccn1 | > 5
48 | Cc1cnn(C(=O)N2CCCN(Cc3cccc(Oc4ccccc4)c3)CC2)c1 | 0.075
49 | O=C(OCCCCc1ccccc1)n1cccn1 | 0.71
50 | Cc1ccc(CNC(=O)n2cc(C)cn2)cc1 | > 5
51 | Cc1cnn(C(=O)OCc2ccc(Oc3ccccc3)cc2)c1 | 0.58
52 | Cc1ccc(COC(=O)n2cc(C#N)cn2)cc1 | > 5
53 | O=C(N1CCN(Cc2cccc(Oc3ccccc3)c2)CC1)n1cccn1 | 0.0061
54 | N#Cc1cnn(C(=O)OCCCCCc2ccccc2)c1 | 4.2
55 | N#Cc1cnn(C(=O)Oc2ccc3ccccc3c2)c1 | > 5
56 | Cc1cnn(C(=O)CCCCc2ccccc2)c1 | > 5
57 | Cc1cnn(C(=O)Cc2ccc(-c3ccccc3)cc2)c1 | > 5
58 | Cc1cnn(C(=O)NCCCCc2ccccc2)c1 | 0.55
59 | N#Cc1cnn(C(=O)OCc2ccc3ccccc3c2)c1 | > 5
60 | COC(=O)c1cnn(C(=O)N2CCN(Cc3ccc4ccccc4c3)CC2)c1 | 0.00036
61 | N#Cc1cnn(C(=O)CCCCCCc2ccccc2)c1 | > 5
62 | Cc1cnn(C(=O)N2CCN(Cc3ccc(-c4ccccc4)cc3)CC2)c1 | 0.17
63 | Cc1cnn(C(=O)N2CCN(C(=O)OC(C)(C)C)CC2)c1 | 0.85
64 | Cc1cnn(C(=O)N2CCCN(Cc3cccc(OCc4ccccc4)c3)CC2)c1 | 0.21
65 | O=C(OCCCCCc1ccccc1)n1cccn1 | > 5
66 | CC(C)(C)OC(=O)N1CCN(C(=O)n2cc(C#N)cn2)CC1 | 0.055

Row | Structure (SMILES) | Ki [µM]
67 | N#Cc1cnn(C(=O)NCc2ccc(Oc3ccccc3)cc2)c1 | 0.0098
68 | O=C(N1CCN(Cc2ccc3ccccc3c2)CC1)n1cc(I)cn1 | 0.00029
69 | N#Cc1cnn(C(=O)OCCCCc2ccccc2)c1 | 0.21
70 | N#Cc1cnn(C(=O)NCCCc2ccccc2)c1 | 0.34
71 | Cc1cnn(C(=O)N2CCN(Cc3ccccc3)CC2)c1 | 0.25
72 | O=C(NCc1ccc2ccccc2c1)n1cccn1 | > 5
73 | CC(C)(C)OC(=O)N1CCN(C(=O)n2cccn2)CC1 | 0.34
74 | O=C(CCCCCCc1ccccc1)n1cccn1 | > 5
75 | O=C(OCc1ccc2ccccc2c1)n1cccn1 | > 5
76 | O=C(NCCCCCc1ccccc1)n1cccn1 | 0.28
77 | O=C(N1CCN(Cc2ccc(Oc3ccccc3)cc2)CC1)n1cccn1 | 0.0092
78 | CN(CCN(C)C(=O)n1cccn1)Cc1ccc(Oc2ccccc2)cc1 | 0.01
79 | Cc1cnn(C(=O)Oc2ccc3ccccc3c2)c1 | > 5
80 | Cc1cnn(C(=O)NCc2ccc(Oc3ccccc3)cc2)c1 | 0.29
81 | O=C(OCCCc1ccccc1)n1cccn1 | > 5
82 | O=C(OCc1ccc(-c2ccccc2)cc1)n1cccn1 | > 5
83 | Cc1cnn(C(=O)Cc2ccc3ccccc3c2)c1 | 5
84 | N#Cc1cnn(C(=O)N2CCCN(Cc3cccc(Oc4ccccc4)c3)CC2)c1 | 0.00023
85 | O=C(N1CCN(Cc2ccc(-c3ccccc3)cc2)CC1)n1cccn1 | 0.012
86 | CN(CCN(C)C(=O)n1cc(C#N)cn1)C(=O)OC(C)(C)C | 0.016
87 | O=C(Nc1ccc2ccccc2c1)n1cccn1 | > 5
88 | CN(CCN(C)C(=O)n1cc(C#N)cn1)Cc1cccc(Oc2ccccc2)c1 | 0.0012

Row | Structure (SMILES) | Ki [µM]
89 | Cc1ccc(CNC(=O)n2cccn2)cc1 | > 5
90 | Cc1cnn(C(=O)OCc2ccc3ccccc3c2)c1 | > 5
91 | O=C(OCc1ccc(OCc2ccccc2)cc1)n1cccn1 | 0.26
92 | Cc1cnn(C(=O)OCCCc2ccccc2)c1 | > 5
93 | Cc1cnn(C(=O)OCCCCc2ccccc2)c1 | > 5
94 | N#Cc1cnn(C(=O)CCCCCc2ccccc2)c1 | > 5
95 | N#Cc1cnn(C(=O)NCc2ccc3ccccc3c2)c1 | > 5
96 | O=C(N1CCCN(Cc2cccc(OCc3ccccc3)c2)CC1)n1cccn1 | 0.012
97 | CC(C)(C)OC(=O)N1CCCN(C(=O)n2cc(C#N)cn2)CC1 | 0.05
98 | N#Cc1cnn(C(=O)N2CCN(Cc3cccc(OCc4ccccc4)c3)CC2)c1 | 0.00015
99 | N#Cc1cnn(C(=O)NCc2ccc(-c3ccccc3)cc2)c1 | > 5
100 | N#Cc1cnn(C(=O)NCCCCCc2ccccc2)c1 | 0.018
101 | O=C(N1CCN(Cc2ccc3ccccc3c2)CC1)n1cc(Br)cn1 | 0.00047
102 | N#Cc1cnn(C(=O)N2CCN(Cc3ccc(Oc4ccccc4)cc3)CC2)c1 | 0.0001
103 | N#Cc1cnn(C(=O)N2CCN(Cc3cccc(Oc4ccccc4)c3)CC2)c1 | 0.00019
104 | Cc1ccc(COC(=O)n2cc(C)cn2)cc1 | > 5
105 | Cc1cnn(C(=O)Nc2ccc3ccccc3c2)c1 | > 5
106 | Cc1cnn(C(=O)CCCCCCc2ccccc2)c1 | > 5
107 | Cc1cnn(C(=O)N(C)CCN(C)Cc2cccc(Oc3ccccc3)c2)c1 | 0.02
108 | N#Cc1cnn(C(=O)Cc2ccc(-c3ccccc3)cc2)c1 | > 5
